Source: patent US9018175B2 (Takeda GmbH, priority 2009, dated 2015)

Legend:
[1] = target: T1, PDE4B1 (Homo sapiens, UniProt Q07343); assay: Inhibition of PDE4B1 activity (SPA, [3H]cAMP); type: biochemical; conditions: recombinant PDE4B1 expressed in SF21 cells; 0.5 pM [sic] cAMP; values given as bins; read-out: PDE4B1 inhibitory values measured as −logIC50 (converted)
T1 construct: made in house; host or cells: SF21 insect cells (baculovirus; pCR-Bac vector)
Outline: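 Recombinant human PDE4B1 (Sf21 cell 1000 g supernatant) in 20 mM Tris pH 7.4, 0.1 mg/ml BSA, 5 mM Mg2+, […] with [3H]cAMP tracer, enzyme giving 10-20% conversion. After 5 min preincubation at 37 °C, 15 min reaction, stopped by SPA beads with IBMX; IC50 by non-linear regression.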

[2] = target: T2, human PDE5 (Homo sapiens, UniProt O76074); assay: Inhibition of PDE5 activity (SPA, [3H]cGMP, platelet lysate); type: biochemical; conditions: PDE5 from human platelet lysate; values given as bins; read-out: PDE5A inhibitory values measured as −logIC50 (converted)
T2 construct: from tissue; host or cells: human platelets from fresh donor blood (10,000 g supernatant of sonicated platelets)
Outline: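 Human platelet lysate served as PDE5 source, with 1 μM motapizone and 10 nM PDE2 inhibitor present; […] plus [3H]cGMP tracer, pH 7.4, 5 mM Mg2+, 10-20% substrate turnover. After 5 min preincubation, 15 min at 37 °C, stopped with SPA beads and IBMX; IC50 by non-linear regression.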

T1 sequence (Q07343 whole entry): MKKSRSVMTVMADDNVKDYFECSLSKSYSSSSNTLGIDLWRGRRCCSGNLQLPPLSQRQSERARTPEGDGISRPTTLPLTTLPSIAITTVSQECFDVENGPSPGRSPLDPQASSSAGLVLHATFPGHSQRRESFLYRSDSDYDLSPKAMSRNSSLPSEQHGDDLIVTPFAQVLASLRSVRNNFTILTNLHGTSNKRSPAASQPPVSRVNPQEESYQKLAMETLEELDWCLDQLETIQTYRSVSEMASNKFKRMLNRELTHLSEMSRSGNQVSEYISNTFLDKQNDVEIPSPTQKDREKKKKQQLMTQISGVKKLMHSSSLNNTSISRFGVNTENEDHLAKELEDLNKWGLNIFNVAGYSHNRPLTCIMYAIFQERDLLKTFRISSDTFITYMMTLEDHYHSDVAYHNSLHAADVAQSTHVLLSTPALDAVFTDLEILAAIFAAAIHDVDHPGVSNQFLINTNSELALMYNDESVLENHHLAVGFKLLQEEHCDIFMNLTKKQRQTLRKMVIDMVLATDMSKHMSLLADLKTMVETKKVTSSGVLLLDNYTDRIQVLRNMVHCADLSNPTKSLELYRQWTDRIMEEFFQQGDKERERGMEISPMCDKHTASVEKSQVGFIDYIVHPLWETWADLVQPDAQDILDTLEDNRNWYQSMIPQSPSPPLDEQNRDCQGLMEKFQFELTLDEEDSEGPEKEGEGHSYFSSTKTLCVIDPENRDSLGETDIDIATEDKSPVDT

| IC50 [1] [nM] | IC50 [2] [nM] | Compound |
| --- | --- | --- |
| 1 to 10 | 10 to 100 | CCOc1cc2c(cc1OC)C(c1ccc(C(=O)N3CCC(n4c(=O)c5sc(-c6ccccc6)cc5n(Cc5nc(CC)co5)c4=O)CC3)cc1)=N[C@@H]1CCSC[C@H]21 [Example 5, 3-[1-({4-[(4aR,10bR)-9-ethoxy-8-methoxy-3,4,4a,10b-tetrahydro-1H-thiopyrano[4,3-c]isoquinolin-6-yl]phenyl}carbonyl)piperidin-4-yl]-1-[(4-ethyl-1,3-oxazol-2-yl)methyl]-6-phenylthieno[3,2-d]pyrimidine-2,4(1H,3H)-dione] |
| 1 to 10 | < 10 | CCOc1cc2c(cc1OC)C(c1ccc(C(=O)N3CCC(n4c(=O)c5sc(-c6ccccc6)cc5n(Cc5nc(CC)no5)c4=O)CC3)cc1)=N[C@@H]1CCSC[C@H]21 [Example 7, 3-(1-{4-[(4aR,10bR)-9-ethoxy-8-methoxy-3,4,4a,10b-tetrahydro-1H-thiopyrano[4,3-c]isoquinolin-6-yl]benzoyl}piperidin-4-yl)-1-[(3-ethyl-1,2,4-oxadiazol-5-yl)methyl]-6-phenylthieno[3,2-d]pyrimidine-2,4(1H,3H)-dione] |
| 1 to 10 | > 100 | CCOc1cc2c(cc1OC)C(c1ccc(C(=O)N3CCC(n4c(=O)c5sc(-c6ccccc6)cc5n(Cc5coc(CC)n5)c4=O)CC3)cc1)=N[C@@H]1CCSC[C@H]21 [Example 16, 3-[1-({4-[(4aR,10bR)-9-ethoxy-8-methoxy-3,4,4a,10b-tetrahydro-1H-thiopyrano[4,3-c]isoquinolin-6-yl]phenyl}carbonyl)piperidin-4-yl]-1-[(2-ethyl-1,3-oxazol-4-yl)methyl]-6-phenylthieno[3,2-d]pyrimidine-2,4(1H,3H)-dione] |
| 1 to 10 | < 10 | CCOc1cc2c(cc1OC)C(c1ccc(C(=O)N3CCC(n4c(=O)c5sc(-c6ccccc6)cc5n(Cc5ncc(CC)o5)c4=O)CC3)cc1)=N[C@@H]1CCSC[C@H]21 [Example 1, 3-[1-({4-[(4aR,10bR)-9-ethoxy-8-methoxy-3,4,4a,10b-tetrahydro-1H-thiopyrano[4,3-c]isoquinolin-6-yl]phenyl}carbonyl)piperidin-4-yl]-1-[(5-ethyl-1,3-oxazol-2-yl)methyl]-6-phenylthieno[3,2-d]pyrimidine-2,4(1H,3H)-dione] |
| 1 to 10 | 10 to 100 | CCOc1cc2c(cc1OC)C(c1ccc(C(=O)N3CCC(n4c(=O)c5sc(-c6ccccc6)cc5n(Cc5cnc(CC)o5)c4=O)CC3)cc1)=N[C@@H]1CCSC[C@H]21 [Example 9, 3-[1-({4-[(4aR,10bR)-9-ethoxy-8-methoxy-3,4,4a,10b-tetrahydro-1H-thiopyrano[4,3-c]isoquinolin-6-yl]phenyl}carbonyl)piperidin-4-yl]-1-[(2-ethyl-1,3-oxazol-5-yl)methyl]-6-phenylthieno[3,2-d]pyrimidine-2,4(1H,3H)-dione] |
| 1 to 10 | 10 to 100 | CCOc1cc2c(cc1OC)C(c1ccc(C(=O)N3CCC(n4c(=O)c5sc(-c6ccccc6)cc5n(Cc5ncc(C)s5)c4=O)CC3)cc1)=N[C@@H]1CCSC[C@H]21 [Example 12, 3-[1-({4-[(4aR,10bR)-9-ethoxy-8-methoxy-3,4,4a,10b-tetrahydro-1H-thiopyrano[4,3-c]isoquinolin-6-yl]phenyl}carbonyl)piperidin-4-yl]-1-[(5-methyl-1,3-thiazol-2-yl)methyl]-6-phenylthieno[3,2-d]pyrimidine-2,4(1H,3H)-dione] |

More lines, now with the values behind:

| Compound | IC50 [1] [nM] | IC50 [2] [nM] |
| --- | --- | --- |
| CCOc1cc2c(cc1OC)C(c1cccc(C(=O)N3CCC(n4c(=O)c5sc(-c6ccc(F)cc6OC)cc5n(Cc5nnn(CC)n5)c4=O)CC3)c1)=N[C@@H]1CCSC[C@H]21 [Example 33, 3-[1-({3-[(4aR,10bR)-9-ethoxy-8-methoxy-3,4,4a,10b-tetrahydro-1H-thiopyrano[4,3-c]isoquinolin-6-yl]phenyl}carbonyl)piperidin-4-yl]-1-[(2-ethyl-2H-tetrazol-5-yl)methyl]-6-(4-fluoro-2-methoxyphenyl)thieno[3,2-d]pyrimidine-2,4(1H,3H)-dione] | > 10 | 10 to 100 |
| CCOc1cc2c(cc1OC)C(c1ccc(C(=O)N3CCC(n4c(=O)c5sc(-c6ccccc6)cc5n(Cc5ncn(C)n5)c4=O)CC3)cc1)=N[C@@H]1CCSC[C@H]21 [Example 52, 3-[1-({4-[(4aR,10bR)-9-ethoxy-8-methoxy-3,4,4a,10b-tetrahydro-1H-thiopyrano[4,3-c]isoquinolin-6-yl]phenyl}carbonyl)piperidin-4-yl]-1-[(1-methyl-1H-1,2,4-triazol-3-yl)methyl]-6-phenylthieno[3,2-d]pyrimidine-2,4(1H,3H)-dione] | < 1 | > 100 |
| CCOc1cc2c(cc1OC)C(c1ccc(C(=O)N3CCC(n4c(=O)c5sc(-c6ccc7c(c6)OCO7)cc5n(Cc5nnn(CC)n5)c4=O)CC3)cc1)=N[C@@H]1CCSC[C@H]21 [Example 30, 6-(1,3-benzodioxol-5-yl)-3-[1-({4-[(4aR,10bR)-9-ethoxy-8-methoxy-3,4,4a,10b-tetrahydro-1H-thiopyrano[4,3-c]isoquinolin-6-yl]phenyl}carbonyl)piperidin-4-yl]-1-[(2-ethyl-2H-tetrazol-5-yl)methyl]thieno[3,2-d]pyrimidine-2,4(1H,3H)-dione] | 1 to 10 | < 10 |
| CCOc1cc2c(cc1OC)C(c1ccc(C(=O)N3CCC(n4c(=O)c5sc(-c6ccc(F)cc6)cc5n(Cc5nc(CC)no5)c4=O)CC3)cc1)=N[C@@H]1CCSC[C@H]21 [Example 47, 3-[1-({4-[(4aR,10bR)-9-ethoxy-8-methoxy-3,4,4a,10b-tetrahydro-1H-thiopyrano[4,3-c]isoquinolin-6-yl]phenyl}carbonyl)piperidin-4-yl]-1-[(3-ethyl-1,2,4-oxadiazol-5-yl)methyl]-6-(4-fluorophenyl)thieno[3,2-d]pyrimidine-2,4(1H,3H)-dione] | 1 to 10 | < 10 |
| CCOc1cc2c(cc1OC)C(c1ccc(C(=O)N3CCC(n4c(=O)c5sc(-c6ccccc6)cc5n(Cc5nnn(CC)n5)c4=O)CC3)cc1)=N[C@@H]1CCS(=O)(=O)C[C@H]21 [Example 19, 3-[1-({4-[(4aR,10bR)-9-ethoxy-8-methoxy-2,2-dioxido-3,4,4a,10b-tetrahydro-1H-thiopyrano[4,3-c]isoquinolin-6-yl]phenyl}carbonyl)piperidin-4-yl]-1-[(2-ethyl-2H-tetrazol-5-yl)methyl]-6-phenylthieno[3,2-d]pyrimidine-2,4(1H,3H)-dione] | > 10 | < 10 |
| CCOc1cc2c(cc1OC)C(c1ccc(C(=O)N3CCC(n4c(=O)c5sc(-c6ccc(F)cc6OC)cc5n(Cc5nnn(CC)n5)c4=O)CC3)cc1)=N[C@@H]1CCSC[C@H]21 [Example 32, 3-[1-({4-[(4aR,10bR)-9-ethoxy-8-methoxy-3,4,4a,10b-tetrahydro-1H-thiopyrano[4,3-c]isoquinolin-6-yl]phenyl}carbonyl)piperidin-4-yl]-1-[(2-ethyl-2H-tetrazol-5-yl)methyl]-6-(4-fluoro-2-methoxyphenyl)thieno[3,2-d]pyrimidine-2,4(1H,3H)-dione] | 1 to 10 | < 10 |
| CCOc1cc2c(cc1OC)C(c1ccc(C(=O)N3CCC(n4c(=O)c5sc(-c6ccccc6)cc5n(Cc5nnn(CC)n5)c4=O)CC3)cc1)=N[C@@H]1CCSC[C@H]21 [Example 14, 3-[1-({4-[(4aR,10bR)-9-ethoxy-8-methoxy-3,4,4a,10b-tetrahydro-1H-thiopyrano[4,3-c]isoquinolin-6-yl]phenyl}carbonyl)piperidin-4-yl]-1-[(2-ethyl-2H-tetrazol-5-yl)methyl]-6-phenylthieno[3,2-d]pyrimidine-2,4(1H,3H)-dione] | > 10 | < 10 |
| CCOc1cc2c(cc1OC)C(c1ccc(C(=O)N3CCC(n4c(=O)c5sc(-c6ccc(F)c(F)c6)cc5n(Cc5nc(CC)no5)c4=O)CC3)cc1)=N[C@@H]1CCSC[C@H]21 [Example 49, 6-(3,4-difluorophenyl)-3-[1-({4-[(4aR,10bR)-9-ethoxy-8-methoxy-3,4,4a,10b-tetrahydro-1H-thiopyrano[4,3-c]isoquinolin-6-yl]phenyl}carbonyl)piperidin-4-yl]-1-[(3-ethyl-1,2,4-oxadiazol-5-yl)methyl]thieno[3,2-d]pyrimidine-2,4(1H,3H)-dione] | 1 to 10 | < 10 |
| CCOc1cc2c(cc1OC)C(c1ccc(C(=O)N3CCC(n4c(=O)c5sc(-c6ccccc6)cc5n(Cc5ccn(CC)n5)c4=O)CC3)cc1)=N[C@@H]1CCSC[C@H]21 [Example 18, 3-[1-({4-[(4aR,10bR)-9-ethoxy-8-methoxy-3,4,4a,10b-tetrahydro-1H-thiopyrano[4,3-c]isoquinolin-6-yl]phenyl}carbonyl)piperidin-4-yl]-1-[(1-ethyl-1H-pyrazol-3-yl)methyl]-6-phenylthieno[3,2-d]pyrimidine-2,4(1H,3H)-dione] | 1 to 10 | > 100 |
| CCOc1cc2c(cc1OC)C(c1ccc(C(=O)N3CCC(n4c(=O)c5sc(-c6ccccc6)cc5n(Cc5nnc(C(C)(C)C)o5)c4=O)CC3)cc1)=N[C@@H]1CCSC[C@H]21 [Example 58, 1-[(5-tert-butyl-1,3,4-oxadiazol-2-yl)methyl]-3-[1-({4-[(4aR,10bR)-9-ethoxy-8-methoxy-3,4,4a,10b-tetrahydro-1H-thiopyrano[4,3-c]isoquinolin-6-yl]phenyl}carbonyl)piperidin-4-yl]-6-phenylthieno[3,2-d]pyrimidine-2,4(1H,3H)-dione] | 1 to 10 | > 100 |
